Test results as given in patent US9884842B2, “Combretastatin analogs” (The Board of Trustees of the University of Arkansas, priority 2013, dated 2018).

Each compound was assayed on SF-295 (assay: NCI growth inhibition and cytotoxicity screen, CNS Cancer panel). Conditions: Homo sapiens; Table 2; cell line SF-295 (CNS Cancer).
Assay type: cell-based
For `COc1cc(/C(C#N)=C/c2ccc3ccccc3n2)cc(OC)c1OC` [PNR-4-90, (Z)-3-(quinolin-2-yl)-2-(3,4,5-trimethoxyphenyl)acrylonitrile], the GI50 was 0.277 µM.

Same assay, conditions: Homo sapiens; Table 2; cell line SF-295 (CNS Cancer); read-out: LC50 (the source's name)
`COc1cc(/C(C#N)=C/c2ccc3ccccc3n2)cc(OC)c1OC` [PNR-4-90, (Z)-3-(quinolin-2-yl)-2-(3,4,5-trimethoxyphenyl)acrylonitrile] gave a CC50 of over 100 µM.

Each compound was assayed on SNB-19 in the same assay as above. Conditions: Homo sapiens, SNB-19.
`COc1cc(/C(C#N)=C/c2ccc3ccccc3n2)cc(OC)c1OC` [PNR-4-90, (Z)-3-(quinolin-2-yl)-2-(3,4,5-trimethoxyphenyl)acrylonitrile] showed a GI50 of 0.578 µM.

Same assay, conditions: Homo sapiens, SNB-19, read-out: LC50
`COc1cc(/C(C#N)=C/c2ccc3ccccc3n2)cc(OC)c1OC` [PNR-4-90, (Z)-3-(quinolin-2-yl)-2-(3,4,5-trimethoxyphenyl)acrylonitrile] gave a CC50 of over 100 µM.

Each compound was assayed on UO-31 (assay: NCI growth inhibition and cytotoxicity screen, Renal Cancer panel). Conditions: Homo sapiens, UO-31.
`COc1cc(/C(C#N)=C/c2ccc3ccccc3n2)cc(OC)c1OC` [PNR-4-90, (Z)-3-(quinolin-2-yl)-2-(3,4,5-trimethoxyphenyl)acrylonitrile] showed a GI50 of 0.762 µM.

Same assay, conditions: Homo sapiens, UO-31, read-out: LC50
`COc1cc(/C(C#N)=C/c2ccc3ccccc3n2)cc(OC)c1OC` [PNR-4-90, (Z)-3-(quinolin-2-yl)-2-(3,4,5-trimethoxyphenyl)acrylonitrile] gave a CC50 of over 100 µM.

The compounds below were run on HT29 (assay: NCI growth inhibition and cytotoxicity screen, Colon Cancer panel). Conditions: Homo sapiens, HT-29.
`COc1cc(/C(C#N)=C/c2ccc3ccccc3n2)cc(OC)c1OC` [PNR-4-90, (Z)-3-(quinolin-2-yl)-2-(3,4,5-trimethoxyphenyl)acrylonitrile] was tested, and the GI50 was 0.24 µM.

Same assay, conditions: Homo sapiens, HT-29, read-out: LC50
For `COc1cc(/C(C#N)=C/c2ccc3ccccc3n2)cc(OC)c1OC` [PNR-4-90, (Z)-3-(quinolin-2-yl)-2-(3,4,5-trimethoxyphenyl)acrylonitrile], the CC50 was over 100 µM.

These compounds were tested on NCI-H226 (assay: NCI growth inhibition and cytotoxicity screen, Lung Cancer panel). Conditions: Homo sapiens, NCI-H226.
`COc1cc(/C(C#N)=C/c2ccc3ccccc3n2)cc(OC)c1OC` [PNR-4-90, (Z)-3-(quinolin-2-yl)-2-(3,4,5-trimethoxyphenyl)acrylonitrile] gave a GI50 of 4.78 µM.

Same assay, conditions: Homo sapiens, NCI-H226, read-out: LC50
`COc1cc(/C(C#N)=C/c2ccc3ccccc3n2)cc(OC)c1OC` [PNR-4-90, (Z)-3-(quinolin-2-yl)-2-(3,4,5-trimethoxyphenyl)acrylonitrile] showed a CC50 of over 100 µM.

These compounds were tested on NCI-H522 in the same assay as above. Conditions: Homo sapiens; Table 2; cell line NCI-H522 (Lung Cancer).
Assay type: cell-based
For `COc1cc(/C(C#N)=C/c2ccc3ccccc3n2)cc(OC)c1OC` [PNR-4-90, (Z)-3-(quinolin-2-yl)-2-(3,4,5-trimethoxyphenyl)acrylonitrile], the GI50 was 0.0372 µM.

Same assay, conditions: Homo sapiens; Table 2; cell line NCI-H522 (Lung Cancer); read-out: LC50 (the source's name)
`COc1cc(/C(C#N)=C/c2ccc3ccccc3n2)cc(OC)c1OC` [PNR-4-90, (Z)-3-(quinolin-2-yl)-2-(3,4,5-trimethoxyphenyl)acrylonitrile] gave a CC50 of over 100 µM.

Each compound was assayed on UACC-257 (assay: NCI growth inhibition and cytotoxicity screen, Melanoma panel). Conditions: Homo sapiens, UACC-257.
`COc1cc(/C(C#N)=C/c2ccc3ccccc3n2)cc(OC)c1OC` [PNR-4-90, (Z)-3-(quinolin-2-yl)-2-(3,4,5-trimethoxyphenyl)acrylonitrile] was tested, and the GI50 was 0.761 µM.

Same assay, conditions: Homo sapiens, UACC-257, read-out: LC50
Work on `COc1cc(/C(C#N)=C/c2ccc3ccccc3n2)cc(OC)c1OC` [PNR-4-90, (Z)-3-(quinolin-2-yl)-2-(3,4,5-trimethoxyphenyl)acrylonitrile] yielded a CC50 of over 100 µM.

What follows are compounds tested on NCI-H23 (assay: NCI growth inhibition and cytotoxicity screen, Lung Cancer panel). Conditions: Homo sapiens, NCI-H23.
Work on `COc1cc(/C(C#N)=C/c2ccc3ccccc3n2)cc(OC)c1OC` [PNR-4-90, (Z)-3-(quinolin-2-yl)-2-(3,4,5-trimethoxyphenyl)acrylonitrile] yielded a GI50 of 0.751 µM.

Same assay, conditions: Homo sapiens, NCI-H23, read-out: LC50
Work on `COc1cc(/C(C#N)=C/c2ccc3ccccc3n2)cc(OC)c1OC` [PNR-4-90, (Z)-3-(quinolin-2-yl)-2-(3,4,5-trimethoxyphenyl)acrylonitrile] yielded a CC50 of over 100 µM.

These compounds were tested on COLO 205 (assay: NCI growth inhibition and cytotoxicity screen, Colon Cancer panel). Conditions: Homo sapiens, COLO 205.
For `COc1cc(/C(C#N)=C/c2ccc3ccccc3n2)cc(OC)c1OC` [PNR-4-90, (Z)-3-(quinolin-2-yl)-2-(3,4,5-trimethoxyphenyl)acrylonitrile], the GI50 was 0.198 µM.

Same assay, conditions: Homo sapiens, COLO 205, read-out: LC50
`COc1cc(/C(C#N)=C/c2ccc3ccccc3n2)cc(OC)c1OC` [PNR-4-90, (Z)-3-(quinolin-2-yl)-2-(3,4,5-trimethoxyphenyl)acrylonitrile] showed a CC50 of 32.7 µM.

These compounds were tested on MCF7 (assay: NCI growth inhibition and cytotoxicity screen, Breast Cancer panel). Conditions: Homo sapiens, MCF7.
`COc1cc(/C(C#N)=C/c2ccc3ccccc3n2)cc(OC)c1OC` [PNR-4-90, (Z)-3-(quinolin-2-yl)-2-(3,4,5-trimethoxyphenyl)acrylonitrile] showed a GI50 of 0.275 µM.

Same assay, conditions: Homo sapiens, MCF7, read-out: LC50
`COc1cc(/C(C#N)=C/c2ccc3ccccc3n2)cc(OC)c1OC` [PNR-4-90, (Z)-3-(quinolin-2-yl)-2-(3,4,5-trimethoxyphenyl)acrylonitrile] was tested, and the CC50 was over 100 µM.

Each compound was assayed on M14 (assay: NCI growth inhibition and cytotoxicity screen, Melanoma panel). Conditions: Homo sapiens, M14.
`COc1cc(/C(C#N)=C/c2ccc3ccccc3n2)cc(OC)c1OC` [PNR-4-90, (Z)-3-(quinolin-2-yl)-2-(3,4,5-trimethoxyphenyl)acrylonitrile] gave a GI50 of 0.173 µM.

Same assay, conditions: Homo sapiens, M14, read-out: LC50
Compound `COc1cc(/C(C#N)=C/c2ccc3ccccc3n2)cc(OC)c1OC` [PNR-4-90, (Z)-3-(quinolin-2-yl)-2-(3,4,5-trimethoxyphenyl)acrylonitrile] has a CC50 of over 100 µM.

What follows are compounds tested on RPMI-8226 (assay: NCI growth inhibition and cytotoxicity screen, Leukemia panel). Conditions: Homo sapiens, RPMI-8226.
In the case of `COc1cc(/C(C#N)=C/c2ccc3ccccc3n2)cc(OC)c1OC` [PNR-4-90, (Z)-3-(quinolin-2-yl)-2-(3,4,5-trimethoxyphenyl)acrylonitrile], the GI50 was 0.297 µM.

Same assay, conditions: Homo sapiens, RPMI-8226, read-out: LC50
With `COc1cc(/C(C#N)=C/c2ccc3ccccc3n2)cc(OC)c1OC` [PNR-4-90, (Z)-3-(quinolin-2-yl)-2-(3,4,5-trimethoxyphenyl)acrylonitrile] the CC50 was over 100 µM.

The compounds below were run on OVCAR-8 (assay: NCI growth inhibition and cytotoxicity screen, Ovarian Cancer panel). Conditions: Homo sapiens, OVCAR-8.
Work on `COc1cc(/C(C#N)=C/c2ccc3ccccc3n2)cc(OC)c1OC` [PNR-4-90, (Z)-3-(quinolin-2-yl)-2-(3,4,5-trimethoxyphenyl)acrylonitrile] yielded a GI50 of 0.446 µM.

Same assay, conditions: Homo sapiens, OVCAR-8, read-out: LC50
Compound `COc1cc(/C(C#N)=C/c2ccc3ccccc3n2)cc(OC)c1OC` [PNR-4-90, (Z)-3-(quinolin-2-yl)-2-(3,4,5-trimethoxyphenyl)acrylonitrile] has a CC50 of over 100 µM.

Each compound was assayed on NCI/ADR-RES in the same assay as above. Conditions: Homo sapiens.
Work on `COc1cc(/C(C#N)=C/c2ccc3ccccc3n2)cc(OC)c1OC` [PNR-4-90, (Z)-3-(quinolin-2-yl)-2-(3,4,5-trimethoxyphenyl)acrylonitrile] yielded a GI50 of 0.112 µM.

Same assay, conditions: Homo sapiens, read-out: LC50
`COc1cc(/C(C#N)=C/c2ccc3ccccc3n2)cc(OC)c1OC` [PNR-4-90, (Z)-3-(quinolin-2-yl)-2-(3,4,5-trimethoxyphenyl)acrylonitrile] was tested, and the CC50 was over 100 µM.
